In patent US10508085B2, “Compounds and methods for IDO and TDO modulation, and indications therefor” (Plexxikon Inc., priority 2016, dated 2019):

Legend:
[1] = target: T1, Human Tryptophan 2,3-dioxygenase (TDO) (Homo sapiens, UniProt P48775); experiment: Human TDO enzymatic assay (kynurenine level); type: biochemical; settings: 1 nM TDO, 350 μM L-Trp; geometric mean; read-out: TDO GMean: IC50 (μM) (Biochemical Assay)
T1 construct: His tag (N); made in house; host or cells: E. coli
Procedure, shortened: (§1)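 IDO conditions: 6 nM His-IDO, 10 μM L-Trp, 5 μM methylene blue, 20 min, RT. TDO conditions: 1 nM His-TDO, 350 μM L-Trp, 0.4 μM methylene blue, 70 min, RT. Both used pH 6.5 phosphate plus ascorbate/catalase, TCA stop at 50° C, kynurenine readout, nonlinear-regression IC50.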

[2] = target: T2, human IDO (IDO1-expressing HEK293 cells) (Homo sapiens, UniProt P14902); experiment: Cell based kynurenine assay, IDO1-expressing HEK293 cell clones; settings: IDO1-expressing HEK293 cells, 24 hours, geometric mean; read-out: HEK293 IDO1 Kynurenine GMean IC50 (μM) (Cellular Assay)
T2 construct: expressed in transfected cells
T2 sequence (P14902 whole entry): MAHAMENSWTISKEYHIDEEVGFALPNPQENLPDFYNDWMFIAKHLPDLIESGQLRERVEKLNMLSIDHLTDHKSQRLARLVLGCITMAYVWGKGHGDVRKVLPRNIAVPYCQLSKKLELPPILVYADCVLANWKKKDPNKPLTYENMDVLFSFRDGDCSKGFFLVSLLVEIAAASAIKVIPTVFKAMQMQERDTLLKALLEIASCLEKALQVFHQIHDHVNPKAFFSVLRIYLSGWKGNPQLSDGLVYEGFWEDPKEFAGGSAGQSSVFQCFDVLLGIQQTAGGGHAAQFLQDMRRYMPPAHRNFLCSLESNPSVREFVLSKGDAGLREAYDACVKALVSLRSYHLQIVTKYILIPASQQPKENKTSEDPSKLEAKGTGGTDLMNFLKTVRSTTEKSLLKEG
Procedure, shortened: (§2)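 IC50 values come from nonlinear regression of kynurenine reduction in supernatants of human IDO1- or TDO-expressing HEK293 cells incubated 24 h with serially diluted compounds, normalised to cell and media-only controls containing 0.2% DMSO.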

[3] = target: T3, Human Indoleamine 2,3-dioxygenase (IDO) (Homo sapiens, UniProt P14902); experiment: Human IDO enzymatic assay (kynurenine level); type: biochemical; settings: 6 nM IDO, 10 μM L-Trp; geometric mean; read-out: IDO1 GMean: IC50 (μM) (Biochemical Assay)
T3 construct: His tag (N); made in house; host or cells: E. coli
T3 sequence (P14902 whole entry): as above
Procedure, shortened: as §1

[4] = target: T4, human TDO (TDO-expressing HEK293 cells) (Homo sapiens, UniProt P48775); experiment: Cell based kynurenine assay, TDO-expressing HEK293 cell clones; settings: TDO-expressing HEK293 cells, 24 hours, geometric mean; read-out: HEK293 TDO Kynurenine GMean IC50 (μM) (Cellular Assay)
T4 construct: expressed in transfected cells
T4 sequence (P48775 whole entry): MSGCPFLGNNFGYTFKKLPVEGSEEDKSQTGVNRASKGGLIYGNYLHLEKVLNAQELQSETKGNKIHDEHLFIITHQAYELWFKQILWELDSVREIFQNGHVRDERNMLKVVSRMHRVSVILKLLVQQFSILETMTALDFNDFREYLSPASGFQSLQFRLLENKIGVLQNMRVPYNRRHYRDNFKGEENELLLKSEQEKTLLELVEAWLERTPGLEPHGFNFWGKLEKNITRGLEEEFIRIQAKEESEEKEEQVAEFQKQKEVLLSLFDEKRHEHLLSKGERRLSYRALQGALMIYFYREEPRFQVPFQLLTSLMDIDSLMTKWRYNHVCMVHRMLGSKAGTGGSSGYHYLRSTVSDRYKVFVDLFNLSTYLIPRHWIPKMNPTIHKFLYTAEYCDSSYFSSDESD
Procedure, shortened: as §2

T1 sequence (P48775 whole entry): as above

| Compound | IC50 [1] [µM] | IC50 [2] [µM] | IC50 [3] [µM] | IC50 [4] [µM] |
| --- | --- | --- | --- | --- |
| CC(C)(C)OC(=O)N1CCC(C(F)(F)[C@@H](O)c2cc(Cl)cc3cn[nH]c23)CC1 [Compound P-0517, tert-butyl (S)-4-(2-(5-chloro-1H-indazol-7-yl)-1,1-difluoro-2-hydroxyethyl) piperidine-1-carboxylate] | > 200 | > 10 | 0.0001 to 10 | > 10 |
| COc1ccc(CC(=O)N2CCC(C(F)(F)C(O)c3cc(Cl)cc4cn[nH]c34)CC2)cn1 (centres unmarked) [Compound P-0521, 1-(4-(2-(5-chloro-1H-indazol-7-yl)-1,1-difluoro-2-hydroxyethyl)piperidin-1-yl)-2-(6-methoxypyridin-3-yl)ethan-1-one] | 0.0001 to 10 | 0.0001 to 10 | 0.0001 to 10 | 0.0001 to 10 |
| COc1cccc(CC(=O)N2CCC(C(F)(F)C(O)c3cc(Cl)cc4cn[nH]c34)CC2)c1 (centres unmarked) [Compound P-0522, 1-(4-(2-(5-chloro-1H-indazol-7-yl)-1,1-difluoro-2-hydroxyethyl)piperidin-1-yl)-2-(3-methoxyphenyl) ethan-1-one] | 0.0001 to 10 | 0.0001 to 10 | 0.0001 to 10 | 0.0001 to 10 |
| O=C(Cc1ccc(Cl)c(F)c1)N1CCC(C(F)(F)C(O)c2cc(Cl)cc3cn[nH]c23)CC1 (centres unmarked) [Compound P-0523, 1-(4-(2-(5-chloro-1H-indazol-7-yl)-1,1-difluoro-2-hydroxyethyl)piperidin-1-yl)-2-(4-chloro-3-fluorophenyl)ethan-1-one] | 0.0001 to 10 | 0.0001 to 10 | 0.0001 to 10 | 0.0001 to 10 |
| O=C(Cc1ccc(F)c(Cl)c1)N1CCC(C(F)(F)C(O)c2cc(Cl)cc3cn[nH]c23)CC1 (centres unmarked) [Compound P-0524, 1-(4-(2-(5-chloro-1H-indazol-7-yl)-1,1-difluoro-2-hydroxyethyl)piperidin-1-yl)-2-(3-chloro-4-fluorophenyl) ethan-1-one] | 0.0001 to 10 | 0.0001 to 10 | 0.0001 to 10 | 0.0001 to 10 |
| O=C(Cc1ccnc(Cl)c1)N1CCC(C(F)(F)C(O)c2cc(Cl)cc3cn[nH]c23)CC1 (centres unmarked) [Compound P-0525, 1-(4-(2-(5-chloro-1H-indazol-7-yl)-1,1-difluoro-2-hydroxyethyl)piperidin-1-yl)-2-(2-chloropyridin-4-yl)ethan-1-one] | 0.0001 to 10 | 0.0001 to 10 | 0.0001 to 10 | 0.0001 to 10 |
| COc1cc(CC(=O)N2CCC(C(F)(F)C(O)c3cc(Cl)cc4cn[nH]c34)CC2)ccn1 (centres unmarked) [Compound P-0526, 1-(4-(2-(5-chloro-1H-indazol-7-yl)-1,1-difluoro-2-hydroxyethyl)piperidin-1-yl)-2-(2-methoxypyridin-4-yl)ethan-1-one] | 0.0001 to 10 | 0.0001 to 10 | 0.0001 to 10 | 0.0001 to 10 |
| CC(C)(C)OC(=O)N1CCC(C(F)(F)[C@H](O)c2c3c(cc4cn[nH]c24)CC3)CC1 [Compound P-0527, tert-butyl (R)-4-(2-(5,6-dihydro-1H-cyclobuta[f]indazol-7-yl)-1,1-difluoro-2-hydroxyethyl) piperidine-1-carboxylate] | 10 to 100 | 0.0001 to 10 | 0.0001 to 10 | 0.0001 to 10 |
| CC(C)(C)OC(=O)N1CCC(C(F)(F)[C@@H](O)c2c3c(cc4cn[nH]c24)CC3)CC1 [Compound P-0528, tert-butyl (S)-4-(2-(5,6-dihydro-1H-cyclobuta[f]indazol-7-yl)-1,1-difluoro-2-hydroxyethyl) piperidine-1-carboxylate] | > 200 | 0.0001 to 10 | 0.0001 to 10 | 0.0001 to 10 |
| CC(C)(C1CCN(C(=O)C2CC2)CC1)[C@H](O)c1cc(Cl)cc2cn[nH]c12 [Compound P-0529, (S)-(4-(1-(5-chloro-1H-indazol-7-yl)-1-hydroxy-2-methylpropan-2-yl)piperidin-1-yl)(cyclopropyl) methanone] | 0.0001 to 10 | 0.0001 to 10 | 0.0001 to 10 | 0.0001 to 10 |
| CC(C)(C1CCN(C(=O)CC2CC2)CC1)[C@H](O)c1cc(Cl)cc2cn[nH]c12 [Compound P-0530, (S)-1-(4-(1-(5-chloro-1H-indazol-7-yl)-1-hydroxy-2-methylpropan-2-yl)piperidin-1-yl)-2-cyclopropylethan-1-one] | 0.0001 to 10 | 0.0001 to 10 | 0.0001 to 10 | 0.0001 to 10 |

The next lines start with the values.

| IC50 [1] [µM] | IC50 [2] [µM] | IC50 [3] [µM] | IC50 [4] [µM] | Compound |
| --- | --- | --- | --- | --- |
| 0.0001 to 10 | 0.0001 to 10 | 0.0001 to 10 | 0.0001 to 10 | CNC(=O)N1CCC(C(C)(C)[C@H](O)c2c(F)c(Cl)cc3cn[nH]c23)CC1 [Compound P-0508, (S)-4-(1-(5-chloro-6-fluoro-1H-indazol-7-yl)-1-hydroxy-2-methylpropan-2-yl)-N-methylpiperidine-1-carboxamide] |
| 0.0001 to 10 | 0.0001 to 10 | 0.0001 to 10 | 0.0001 to 10 | CC(C)(C1CCN(C(=O)NC2CC2)CC1)[C@H](O)c1c(F)c(Cl)cc2cn[nH]c12 [Compound P-0509, (S)-4-(1-(5-chloro-6-fluoro-1H-indazol-7-yl)-1-hydroxy-2-methylpropan-2-yl)-N-cyclopropylpiperidine-1-carboxamide] |
| 0.0001 to 10 | 0.0001 to 10 | 0.0001 to 10 | 0.0001 to 10 | COCCNC(=O)N1CCC(C(C)(C)[C@H](O)c2c(F)c(Cl)cc3cn[nH]c23)CC1 [Compound P-0510, (S)-4-(1-(5-chloro-6-fluoro-1H-indazol-7-yl)-1-hydroxy-2-methylpropan-2-yl)-N-(2-methoxyethyl) piperidine-1-carboxamide] |
| 0.0001 to 10 | 0.0001 to 10 | 0.0001 to 10 | 0.0001 to 10 | CC(C)(C1CCN(C(=O)NCC(F)(F)F)CC1)[C@H](O)c1c(F)c(Cl)cc2cn[nH]c12 [Compound P-0511, (S)-4-(1-(5-chloro-6-fluoro-1H-indazol-7-yl)-1-hydroxy-2-methylpropan-2-yl)-N-(2,2,2-trifluoroethyl) piperidine-1-carboxamide] |
| 0.0001 to 10 | 0.0001 to 10 | 0.0001 to 10 | 0.0001 to 10 | CC(C)(C1CCN(C(=O)Nc2ccc(F)cc2)CC1)[C@H](O)c1c(F)c(Cl)cc2cn[nH]c12 [Compound P-0512, (S)-4-(1-(5-chloro-6-fluoro-1H-indazol-7-yl)-1-hydroxy-2-methylpropan-2-yl)-N-(4-fluorophenyl) piperidine-1-carboxamide] |
| 0.0001 to 10 | 0.0001 to 10 | 0.0001 to 10 | 0.0001 to 10 | CCOC(=O)NC(=O)N1CCC(C(C)(C)[C@H](O)c2c(F)c(Cl)cc3cn[nH]c23)CC1 [Compound P-0513, ethyl (S)-(4-(1-(5-chloro-6-fluoro-1H-indazol-7-yl)-1-hydroxy-2-methylpropan-2-yl)piperidine-1-carbonyl)carbamate] |
| 0.0001 to 10 | 0.0001 to 10 | 0.0001 to 10 | 0.0001 to 10 | CC(C)(C1CCN(C(=O)NC(=O)c2ccccc2)CC1)[C@H](O)c1c(F)c(Cl)cc2cn[nH]c12 [Compound P-0514, (S)-N-benzoyl-4-(1-(5-chloro-6-fluoro-1H-indazol-7-yl)-1-hydroxy-2-methylpropan-2-yl)piperidine-1-carboxamide] |
| 0.0001 to 10 | 0.0001 to 10 | 0.0001 to 10 | 0.0001 to 10 | CC(C)(C1CCN(S(C)(=O)=O)CC1)[C@H](O)c1c(F)c(Cl)cc2cn[nH]c12 [Compound P-0515, (S)-1-(5-chloro-6-fluoro-1H-indazol-7-yl)-2-methyl-2-(1-(methylsulfonyl)piperidin-4-yl) propan-1-ol] |
| 0.0001 to 10 | 0.0001 to 10 | 0.0001 to 10 | 0.0001 to 10 | CC(C)(C)OC(=O)N1CCC(C(F)(F)[C@H](O)c2cc(Cl)cc3cn[nH]c23)CC1 [Compound P-0516, tert-butyl (R)-4-(2-(5-chloro-1H-indazol-7-yl)-1,1-difluoro-2-hydroxyethyl) piperidine-1-carboxylate] |
| 0.0001 to 10 | 0.0001 to 10 | 0.0001 to 10 | 0.0001 to 10 | CC(C)(C1CCN(C(=O)Cc2ccc(Cl)c(F)c2)CC1)[C@H](O)c1cc(Cl)cc2cn[nH]c12 [Compound P-0518, (S)-1-(4-(1-(5-chloro-1H-indazol-7-yl)-1-hydroxy-2-methylpropan-2-yl)piperidin-1-yl)-2-(4-chloro-3-fluorophenyl) ethan-1-one] |
| 0.0001 to 10 | 0.0001 to 10 | 0.0001 to 10 | 0.0001 to 10 | CC(C)(C1CCN(C(=O)Cc2ccc(F)c(Cl)c2)CC1)[C@H](O)c1cc(Cl)cc2cn[nH]c12 [Compound P-0519, (S)-1-(4-(1-(5-chloro-1H-indazol-7-yl)-1-hydroxy-2-methylpropan-2-yl)piperidin-1-yl)-2-(3-chloro-4-fluorophenyl)ethan-1-one] |
| 0.0001 to 10 | 0.0001 to 10 | 0.0001 to 10 | 0.0001 to 10 | O=C(Cc1cccc(Cl)c1)N1CCC(C(F)(F)C(O)c2cc(Cl)cc3cn[nH]c23)CC1 (centres unmarked) [Compound P-0520, 1-(4-(2-(5-chloro-1H-indazol-7-yl)-1,1-difluoro-2-hydroxyethyl)piperidin-1-yl)-2-(3-chlorophenyl) ethan-1-one] |
